Experimental data: BindingDB's records for doi:10.1038/nchembio.1865 (University of British Columbia, 2015)

molecular target: T1, Pancreatic alpha-amylase (Homo sapiens, UniProt P04746); assay: Kinetic Studies; conditions: 30 °C
T1 sequence (P04746 whole entry): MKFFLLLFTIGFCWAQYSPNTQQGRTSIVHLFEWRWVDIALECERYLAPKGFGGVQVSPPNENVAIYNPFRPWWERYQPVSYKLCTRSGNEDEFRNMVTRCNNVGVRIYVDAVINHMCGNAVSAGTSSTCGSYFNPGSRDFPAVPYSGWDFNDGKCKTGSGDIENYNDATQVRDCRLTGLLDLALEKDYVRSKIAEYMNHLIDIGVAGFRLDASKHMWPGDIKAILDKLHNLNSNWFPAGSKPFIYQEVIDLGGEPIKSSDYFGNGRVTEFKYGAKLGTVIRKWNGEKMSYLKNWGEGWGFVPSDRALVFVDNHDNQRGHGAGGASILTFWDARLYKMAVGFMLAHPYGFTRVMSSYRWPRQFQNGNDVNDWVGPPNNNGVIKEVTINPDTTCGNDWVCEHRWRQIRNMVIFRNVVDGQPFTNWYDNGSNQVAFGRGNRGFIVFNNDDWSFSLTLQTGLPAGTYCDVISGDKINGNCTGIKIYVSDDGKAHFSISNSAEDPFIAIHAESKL
Method: 2-Chloro-4-nitrophenyl α-d-maltotrioside (CNP-G3) was used as the substrate in a similar range of concentrations. Initial reaction rates for the release of chloronitrophenolate were measured and the further progress of substrate cleavage monitored continuously. Reactions were performed on a Varian Cary 4000 UV/Vis spectrophotometer at 400 nm and 30 °C.

Q: How did the Ki turn out when `C[C@@H]1O[C@@H](O[C@@H]2CO[C@@H](Oc3c(O)cc(-c4oc5cc(O)cc(O)c5c(=O)c4O[C@@H]4O[C@@H](C)[C@H](O)[C@@H](O)[C@H]4O[C@@H]4O[C@H](CO)[C@@H](O)[C@H](O)[C@H]4O[C@@H]4O[C@H](CO)[C@@H](O)[C@H](O)[C@H]4O)cc3O)[C@H](O)[C@H]2O)[C@H](O)[C@H](O)[C@H]1O` [MbA-C (6)] was run?
A: 730 nM

Q: `C[C@@H]1O[C@@H](O[C@@H]2CO[C@@H](Oc3c(O)cc(-c4oc5cc(O)cc(O)c5c(=O)c4O[C@@H]4O[C@@H](C)[C@H](O)[C@@H](O)[C@H]4O[C@@H]4O[C@H](CO)[C@@H](O)[C@H](O)[C@H]4O)cc3O)[C@H](O)[C@H]2O)[C@H](O)[C@H](O)[C@H]1O` [MbA-CG (7)] was tested. Which Ki did it give?
A: 2240 nM

Q: Which Ki does the source give for `C[C@@H]1O[C@@H](Oc2c(-c3cc(O)c(O[C@@H]4OC[C@@H](O)[C@H](O)[C@H]4O)c(O)c3)oc3cc(O)cc(O)c3c2=O)[C@H](O[C@@H]2O[C@H](CO)[C@@H](O)[C@H](O)[C@H]2O)[C@H](O)[C@H]1O` [MbA-CGR (9)] here?
A: 128000 nM

Q: How did the Ki turn out when `C[C@@H]1O[C@@H](Oc2c(-c3cc(O)c(O[C@@H]4OC[C@@H](O)[C@H](O)[C@H]4O)c(O)c3)oc3cc(O)cc(O)c3c2=O)[C@H](O[C@@H]2O[C@H](CO)[C@@H](O)[C@H](O)[C@H]2O[C@@H]2O[C@H](CO)[C@@H](O)[C@H](O)[C@H]2O)[C@H](O)[C@H]1O` [MbA-CR (8)] was run?
A: 46800 nM

Q: How did the Ki turn out when `C[C@@H]1O[C@@H](O[C@@H]2CO[C@@H](Oc3c(O)cc(-c4oc5cc(O)cc(O)c5c(=O)c4O[C@@H]4O[C@@H](C)[C@H](O)[C@@H](O)[C@H]4O[C@@H]4O[C@H](COC(=O)/C=C/c5ccc(O)c(O)c5)[C@@H](O)[C@H](O)[C@H]4O)cc3O)[C@H](O)[C@H]2O)[C@H](O)[C@H](O)[C@H]1O` [MbA-G (1)] was run?
A: 9.1 nM

Q: How did the Ki turn out when `C[C@@H]1O[C@@H](Oc2c(-c3cc(O)c(O[C@@H]4OC[C@@H](O)[C@H](O)[C@H]4O)c(O)c3)oc3cc(O)cc(O)c3c2=O)[C@H](O[C@@H]2O[C@H](COC(=O)/C=C/c3ccc(O)c(O)c3)[C@@H](O)[C@H](O)[C@H]2O)[C@H](O)[C@H]1O` [MbA-GR (4)] was run?
A: 79.3 nM

Q: For `C[C@@H]1O[C@@H](Oc2c(-c3cc(O)c(O)c(O)c3)oc3cc(O)cc(O)c3c2=O)[C@H](O[C@@H]2O[C@H](COC(=O)/C=C/c3ccc(O)c(O)c3)[C@@H](O)[C@H](O)[C@H]2O[C@@H]2O[C@H](CO)[C@@H](O)[C@H](O)[C@H]2O)[C@H](O)[C@H]1O` [MbA-RX (3)], which Ki is on record?
A: 42.4 nM

Q: With `O=C(/C=C/c1ccc(O)c(O)c1)NCc1cn(CCCCCCOc2c(-c3ccc(O)c(O)c3)oc3cc(O)cc(O)c3c2=O)nn1` [mini-MbA analog inhibitor 10] as the compound, how does the Ki read?
A: 13900 nM

Q: Which Ki does the source give for `C[C@@H]1O[C@@H](Oc2c(-c3cc(O)c(O)c(O)c3)oc3cc(O)cc(O)c3c2=O)[C@H](O[C@@H]2O[C@H](COC(=O)/C=C/c3ccc(O)c(O)c3)[C@@H](O)[C@H](O)[C@H]2O)[C@H](O)[C@H]1O` [mini-MbA] here?
A: 93.3 nM
